# Key:
# GAVE17 [1] = target: T1, GAVE17 (Homo sapiens, UniProt Q9BPV8); assay: Nucleotide ligand activation of and affinity for GAVE17 in transformed NIH 3T3 cells; format: cell-based; set-up: expressed in transfected cells; host or cells: NIH 3T3; conditions: for Kd: transformed NIH 3T3 cells
# T1 sequence (Q9BPV8 1-333 isoform Q9BPV8-2): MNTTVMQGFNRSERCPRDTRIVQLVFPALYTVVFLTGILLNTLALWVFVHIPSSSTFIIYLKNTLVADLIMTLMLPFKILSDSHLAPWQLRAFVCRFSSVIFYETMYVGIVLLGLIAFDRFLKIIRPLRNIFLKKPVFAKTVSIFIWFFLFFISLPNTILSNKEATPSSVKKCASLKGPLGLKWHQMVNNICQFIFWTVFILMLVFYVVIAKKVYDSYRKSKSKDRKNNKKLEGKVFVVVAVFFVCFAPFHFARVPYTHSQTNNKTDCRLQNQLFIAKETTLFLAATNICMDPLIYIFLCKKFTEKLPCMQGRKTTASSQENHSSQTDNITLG
# GAVE17 [2] = target: T1, GAVE17; assay: Agonist assay utilizing FLIPR, NIH 3T3 cell line transfected with hGAVE17 (Ca2+ fluorescence); format: cell-based; set-up: host or cells: Gα16-coupled NIH 3T3; conditions: NIH313 cell line transfected with PEAK8 expression vector comprising SEQ ID NO:1; FIGS. 3a-d
# Text: To screen for agonists of human GAVE17, hGAVE17 is coupled artificially to a Gq mechanism. Activation of the Gq mechanism stimulates the release of Ca^2+ from sarcoplasmic reticulum vesicles within the cell. The Ca^2+ is released into the cytoplasm where it can be detected using Ca^2+ chelating dyes. A Fluorometric Imaging Plate Reader or FLIPR® apparatus (Molecular Devices) is used to monitor any resulting changes in fluorescence. The activity of an agonist is reflected by an increase in fluorescence.
# In a particular example, NIH 3T3 cells expressing hGAVE17 are pre-engineered to express an indiscriminate form of Gq protein (Gα16). To prepare such cells, Gα16-coupled NIH 3T3 cells are obtained commercially (Molecular Devices LIVEWARE™ cells, Catalog No. RD-HGA16) and the protocol in Example 2 followed to facilitate expression of hGAVE17 in those cells.
# The cells are maintained in log phase of growth at 37° C. and 5% CO2 in F12 Ham's media (Gibco/BRL, Catalog No. 11765-054) containing 10% fetal bovine serum, 100 lU/ml penicillin (Gibco/BRL, Catalog No. 15140-148), 100 μg/ml streptomycin (Catalog No. 15140-148, Gibco/BRL), 400 μg/ml genetecin (G418) (Gibco/BRL, Catalog No. 10131-035) and 200 μg/ml zeocin (Invitrogen, Catalog No. R250-05). One day prior to an assay, 12,500 cells/well of the NIH 3T3 cells are plated onto 384-well clear-bottomed assay plates with a well volume of 50 μl (Greiner/Marsh, Catalog No. N58102) using a 96/384 Multidrop device (Labsystems, Type 832). The cells are incubated at 37° C. in a humidified 5% CO2 incubator (Forma Scientific CO2 water-jacketed incubator Model 3110).
# The following stock solutions are prepared: a 1 M stock solution of Hepes (pH 7.5) (Gibco/BRL, Catalog No. 15630-080); a 250 mM stock solution of probenicid (Sigma, Catalog No. P8761) made in 1 N NaOH; and a 1 mM stock solution of Fluo 4-AM Dye (Molecular Probes, Catalog No. F1 4202) made in DMSO (Sigma D2650). Reaction buffer is prepared with 1000 ml Hank's balanced salt solution (Fisher/Mediatech, Catalog No. MT21023), 20 ml of the 1 M Hepes stock solution and 10 ml of the 250 mM probenicid stock solution. […]
# A compound library containing possible agonists such as various purine derivatives or purine mimetics is tested at a concentration of 10 μM in physiological salt buffer. Changes in fluorescence are measured for 10 seconds prior to compound addition. After the addition of the compound, fluorescence is measured every second for the first minute followed by exposures taken every six seconds for a total experimental analysis time of three minutes. […]
activation of GAVE17 (GAVE17 [1]),Kd (GAVE17 [1]) [µM],agonist activity (FLIPR units vs log molar concentration) (GAVE17 [2]),Compound
activate,6.9,agonist activity,O=c1ccn([C@@H]2O[C@H](COP(=O)(O)OP(=O)(O)OP(=O)(O)O)[C@@H](O)[C@H]2O)c(=O)[nH]1 [UTP]
activate,10,agonist activity,O=c1ccn([C@@H]2O[C@H](COP(=O)(O)OP(=O)(O)O)[C@@H](O)[C@H]2O)c(=O)[nH]1 [UDP]

# More lines, now with the values behind:
Compound,activation of GAVE17 (GAVE17 [1]),Kd (GAVE17 [1]) [µM],agonist activity (FLIPR units vs log molar concentration) (GAVE17 [2])
Nc1nc2c(ncn2[C@@H]2O[C@H](COP(=O)(O)OP(=O)(O)O)[C@@H](O)[C@H]2O)c(=O)[nH]1 [GDP],activate,65,–
Nc1ncnc2c1ncn2[C@@H]1O[C@H](COP(=O)(O)OP(=O)(O)OP(=O)(O)O)[C@@H](O)[C@H]1O [ATP],activate,0.8,agonist activity
Nc1ncnc2c1ncn2[C@@H]1O[C@H](COP(=O)(O)OP(=O)(O)O)[C@@H](O)[C@H]1O [ADP],activate,26,agonist activity

# From patent publication US20030215878A1, “Novel G protein-coupled purinergic receptor, GAVE17” (priority 2002, published 2003)
